Tests used:
[1] = Drug metabolism in mouse liver microsomes after 20 mins; assay type: ADME, Microsome; settings: read-out: Drug metabolism
[2] = Drug metabolism in human liver microsomes after 20 mins; assay type: ADME, Microsome; settings: read-out: Drug metabolism
[3] = biological target: 11-beta-hydroxysteroid dehydrogenase 1 (Mus musculus, UniProt P50172); test: Inhibition of mouse 11beta-HSD1
[4] = Chemical stability of the compound under neutral condition; assay type: physicochemical
[5] = Metabolic stability in plasma (unknown origin) assessed as compound degradation; assay type: ADME, cell-free
[6] = Chemical stability of the compound under acidic condition; assay type: physicochemical
[7] = biological target: 11-beta-hydroxysteroid dehydrogenase 1 (Rattus norvegicus, UniProt P16232); test: Inhibition of rat 11beta-HSD1
11-beta-hydroxysteroid dehydrogenase 1 (Rattus norvegicus, UniProt P16232), sequence (P16232 whole entry): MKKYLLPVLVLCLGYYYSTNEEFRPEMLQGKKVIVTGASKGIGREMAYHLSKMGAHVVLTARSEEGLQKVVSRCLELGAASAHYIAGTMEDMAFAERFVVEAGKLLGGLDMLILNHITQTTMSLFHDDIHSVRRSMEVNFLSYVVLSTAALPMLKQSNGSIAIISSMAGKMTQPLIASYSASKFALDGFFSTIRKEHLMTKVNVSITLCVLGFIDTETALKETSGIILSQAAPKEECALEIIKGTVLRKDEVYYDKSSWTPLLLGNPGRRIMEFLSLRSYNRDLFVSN

[8] = biological target: 11-beta-hydroxysteroid dehydrogenase 1 (Homo sapiens, UniProt P28845); test: Inhibition of human 11beta-HSD1
11-beta-hydroxysteroid dehydrogenase 1 (Homo sapiens, UniProt P28845), sequence (P28845 whole entry): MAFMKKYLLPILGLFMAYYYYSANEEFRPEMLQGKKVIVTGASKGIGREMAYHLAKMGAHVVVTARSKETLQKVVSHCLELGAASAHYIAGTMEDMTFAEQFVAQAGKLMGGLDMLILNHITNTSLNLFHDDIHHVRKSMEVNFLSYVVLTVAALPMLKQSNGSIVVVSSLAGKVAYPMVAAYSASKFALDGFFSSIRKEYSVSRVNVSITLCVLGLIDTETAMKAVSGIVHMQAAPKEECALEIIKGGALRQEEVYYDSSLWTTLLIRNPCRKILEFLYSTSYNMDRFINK

11-beta-hydroxysteroid dehydrogenase 1 (Mus musculus, UniProt P50172), sequence (P50172 whole entry): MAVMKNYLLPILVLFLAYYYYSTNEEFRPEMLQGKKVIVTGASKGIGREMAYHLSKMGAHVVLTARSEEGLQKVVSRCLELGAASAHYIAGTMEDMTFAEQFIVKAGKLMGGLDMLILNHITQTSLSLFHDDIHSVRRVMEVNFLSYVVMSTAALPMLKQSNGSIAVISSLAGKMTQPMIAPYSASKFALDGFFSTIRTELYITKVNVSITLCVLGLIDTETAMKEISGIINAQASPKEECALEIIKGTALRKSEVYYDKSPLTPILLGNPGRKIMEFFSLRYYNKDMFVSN

## O=S1(=O)N=C(N[C@@H](CCCO)c2ccccc2)O[C@H]2CCCC[C@H]21
[1]
  metabolised at 20 min: 78%
[2]
  metabolised at 20 min: 89%
[3]
  IC50: 294 nM

## CC1(C)OC(NC2CCCCC2)=NS(=O)(=O)C1(C)C
[1]
  metabolised at 20 min: 9%
[2]
  metabolised at 20 min: 5%
[3]
  IC50: 865 nM

## CC1(C)OC(NC2CCCCC2)=NS(=O)(=O)C12CC2
[3]
  IC50: 1620 nM

## O=S1(=O)N=C(NC2CCCCC2)OC2(CCC2)C12CC2
[3]
  IC50: 813 nM

## CCC1OC(NC2CCCCC2)=NS(=O)(=O)C12CC2 (centres undefined)
[3]
  IC50: 2510 nM

## C[C@H](NC1=NS(=O)(=O)C(C)(C)C(C)(C)O1)c1ccccc1
[3]
  IC50: 286 nM

## C[C@H](NC1=NS(=O)(=O)C(C)(C)C(C)(C)O1)c1ccccc1Cl
[3]
  IC50: 29 nM

## CC1(C)OC(N[C@@H](CCO)c2ccccc2)=NS(=O)(=O)C1(C)C
[1]
  metabolised at 20 min: 11%
[2]
  metabolised at 20 min: 4%
[3]
  IC50: 232 nM

## CC1(C)OC(N[C@@H](CCO)c2ccccc2Cl)=NS(=O)(=O)C1(C)C
[1]
  metabolised at 20 min: 52%
[2]
  metabolised at 20 min: 25%
[3]
  IC50: 26 nM

## CC1(C)OC(N[C@@H](CCO)c2cccc(C#N)c2)=NS(=O)(=O)C1(C)C
[3]
  IC50: 110 nM

## CC1(C)OC(N[C@@H](CCO)c2ccc(F)cc2)=NS(=O)(=O)C1(C)C
[1]
  metabolised at 20 min: 9%
[2]
  metabolised at 20 min: 2%
[3]
  IC50: 199 nM

## CC(C)(O)C[C@H](NC1=NS(=O)(=O)C(C)(C)C(C)(C)O1)c1ccccc1Cl
[3]
  IC50: 452 nM

## O=S1(=O)N=C(NC2CCCCC2)O[C@H]2CCCC[C@H]21
[4]
  Stability: Stable
[5]
  Stability: Stable
[6]
  Stability: Stable
[7]
  IC50: 246 nM

## O=S1(=O)NC(=NC2CCCCC2)O[C@@H]2CCCC[C@H]21
[7]
  IC50: 1140 nM

## O=S1(=O)NC(=NCc2ccccc2)O[C@H]2CCCC[C@H]21
[3]
  IC50: 786 nM

## O=S1(=O)NC(=NC23CCC(CC2)CC3)O[C@H]2CCCC[C@H]21
[1]
  metabolised at 20 min: 87%
[2]
  metabolised at 20 min: 94%
[3]
  IC50: 275 nM

## O=S1(=O)NC(=NC23CC4CC(CC(C4)C2)C3)O[C@H]2CCCC[C@H]21
[1]
  metabolised at 20 min: 98%
[2]
  metabolised at 20 min: 91%
[3]
  IC50: 40 nM

## O=S1(=O)NC(=NC23CC4CC(CC2C4)C3)O[C@H]2CCCC[C@H]21 (mixture of isomers)
[1]
  metabolised at 20 min: 65%
[2]
  metabolised at 20 min: 83%
[3]
  IC50: 9 nM

## CC(C)(NC1=NS(=O)(=O)[C@@H]2CCCC[C@@H]2O1)c1ccccc1 (mixture of isomers)
[3]
  IC50: 444 nM

## O=S1(=O)NC(=N[C@@H](CO)c2ccccc2)O[C@H]2CCCC[C@H]21 (mixture of isomers)
[3]
  IC50: 152 nM

## O=S1(=O)N=C(N[C@@H](CCO)c2ccccc2)O[C@H]2CCCC[C@H]21 (mixture of isomers)
[1]
  metabolised at 20 min: 41%
[2]
  metabolised at 20 min: 77%
[3]
  IC50: 16 nM

## NC(=O)C[C@H](NC1=NS(=O)(=O)[C@@H]2CCCC[C@@H]2O1)c1ccccc1 (mixture of isomers)
[1]
  metabolised at 20 min: 35%
[2]
  metabolised at 20 min: 47%

## O=S1(=O)N=C(NC23CCCC2CCC3)O[C@H]2CCCC[C@H]21 (mixture of isomers)
[3]
  IC50: 47 nM

## O=S1(=O)N=C(NC23CCC(F)(CC2)CC3)O[C@H]2CCCC[C@H]21 (mixture of isomers)
[3]
  IC50: 454 nM

## O=S1(=O)N=C(NC23CCC(O)(CC2)CC3)O[C@H]2CCCC[C@H]21 (mixture of isomers)
[1]
  metabolised at 20 min: 20%
[2]
  metabolised at 20 min: 12%
[3]
  IC50: 695 nM

## O=S1(=O)NC(=NC23CC4CC(CC(O)(C4)C2)C3)O[C@H]2CCCC[C@H]21 (mixture of isomers)
[3]
  IC50: 400 nM

## O=S1(=O)NC(=NCC23CC4CC(CC(C4)C2)C3)O[C@H]2CCCC[C@H]21 (mixture of isomers)
[3]
  IC50: 76 nM

## O=S1(=O)N=C(NC2CCCCC2)O[C@H]2CCCC[C@H]21 (racemic)
[1]
  metabolised at 20 min: 19%
[2]
  metabolised at 20 min: 18%

## O=S1(=O)N=C(NC2CCCCC2)O[C@H]2CCNC[C@H]21 (racemic)
[8]
  IC50: > 2250 nM

## O=S1(=O)NC(=NC2CCCCC2)O[C@@H]2CCNC[C@H]21 (racemic)
[8]
  IC50: > 2250 nM

## CN1CC[C@@H]2OC(=NC3CCCCC3)NS(=O)(=O)[C@@H]2C1 (racemic)
[8]
  IC50: > 2250 nM

## O=S1(=O)N=C(NC2CCCCCC2)O[C@H]2CCCC[C@H]21 (racemic)
[1]
  metabolised at 20 min: 54%
[2]
  metabolised at 20 min: 45%
[3]
  IC50: 87 nM

## O=S1(=O)N=C(NC2CCCCCCC2)O[C@H]2CCCC[C@H]21 (racemic)
[1]
  metabolised at 20 min: 84%
[2]
  metabolised at 20 min: 79%
[3]
  IC50: 31 nM

## CC1(C)CCC(N=C2NS(=O)(=O)[C@@H]3CCCC[C@@H]3O2)CC1 (racemic)
[1]
  metabolised at 20 min: 55%
[2]
  metabolised at 20 min: 55%
[3]
  IC50: 455 nM

## CC1(C)CC(NC2=NS(=O)(=O)[C@@H]3CCCC[C@@H]3O2)CC(C)(C)C1 (racemic)
[1]
  metabolised at 20 min: 97%
[2]
  metabolised at 20 min: 93%
[3]
  IC50: 57 nM

## O=S1(=O)NC(=NCC2CCCCC2)O[C@H]2CCCC[C@H]21 (racemic)
[3]
  IC50: 729 nM

From ChEMBL document CHEMBL2407060, “1,1-Dioxo-5,6-dihydro-[4,1,2]oxathiazines, a novel class of 11ß-HSD1 inhibitors for the treatment of diabetes” (Bioorg Med Chem Lett, 2013)
